# Data published in ChEMBL document CHEMBL1154875, “Pharmacophoric model building for antitubercular activity of the individual Schiff bases of small combinatorial library” (2010).
# Tested on: Mycobacterium tuberculosis
# Assay: Antimicrobial activity against Mycobacterium tuberculosis H37Rv ATCC 27294 at 6.25 ug/ml after 24 hrs by Microplate Almar blue assay
# Type: functional
# Conditions: H37Rv ATCC 27294, 24 h
row,Structure (SMILES),inhibition at 6.25 µg/mL [%]
1,C/C(=N\NC(=O)c1ccncc1)c1ccc([N+](=O)[O-])cc1,99
2,O=C(NN/C=C/c1ccccc1)c1cc(/C=C\c2ccco2)on1,80
3,O=C(N/N=C/c1ccc([N+](=O)[O-])cc1)c1ccco1,35
4,CC(=O)OC(O/C(C)=N/NC(=O)c1ccncc1)c1ccc([N+](=O)[O-])o1 (centres undefined),84
5,C/C(=N/NC(=O)c1cc(/C=C\c2ccco2)on1)c1ccc([N+](=O)[O-])cc1,66
6,C/C(=N/NC(=O)c1ccco1)c1ccc([N+](=O)[O-])cc1,62
7,CC(=O)OC(O/C(C)=N/NC(=O)c1cc(/C=C\c2ccco2)on1)c1ccc([N+](=O)[O-])o1 (centres undefined),59
8,O=C(NN/C=C/c1ccccc1)c1ccncc1,54
9,O=C1Nc2ccccc2/C1=N\NC(=O)c1ccco1,41
10,O=C1Nc2ccccc2/C1=N\NC(=O)c1cc(/C=C\c2ccco2)on1,39
11,O=C(N/N=C/c1ccc([N+](=O)[O-])cc1)c1cc(/C=C\c2ccco2)on1,37
12,CC(=O)OC(O/C(C)=N/NC(=O)c1ccco1)c1ccc([N+](=O)[O-])o1 (centres undefined),99
13,O=C1Nc2ccccc2/C1=N\NC(=O)c1cccnc1,57
14,O=C(N/N=C/c1ccccc1)c1ccncc1 [N'-BENZYLIDENE ISONICOTINOHYDRAZIDE],51
